Assay: nhibition Assay against Klebsiella pneumoniae LpxC: LpxC inhibition assays were performed using liquid chromatography with tandem mass spectrometry. Assays were performed, in duplicate, in opaque, 96-well microplates in a total assay volume of 50 μL. The incubation mixture contained: LpxC (0.2 nM Kpn), 0.8 μM UDP-3-O—[(R)-3-hydroxymyristoyl]-N-acetyl-glucosamine, 40 mM Bis-Tris/HCl buffer (pH 5.9), 5 mM sodium phosphate buffer (NaH2PO4/Na2HPO4, pH 7.0), 1 mM DTT, 0.1% (w/v) fatty-acid free BSA, 10% DMSO (v/v, with or without compound). The reactions were incubated at 22° C. for 60 minutes (with mild shaking), then terminated by the addition of 25 μL 0.25 N HCl. Samples were analyzed using a LC-MS system to measure native LpxC substrate and reaction product. IC50 analysis was done using GeneData Screener and a four parameter variable slope normalized to controls. Test compounds were prepared as 8-point dose-response curves (factor dilution 2) in triplicate, starting at 1 μM final concentration. Each assay plate included 6 wells used for the Z′ factor calculation, 3 as a positive control for the assay and 3 as a negative control. The robustness was calculated as the median Z′ factor for 5 plates. Chir-90, a well-known inhibitor of LpxC activity was used as inhibitor control standard.

C[C@@H](O)[C@H](NC(=O)c1ccc(C#Cc2ccc(CN3CCOCC3)cc2)cc1)C(=O)NO
IC50: < 1 nM
